PubChem BioAssay AID1963985 (Molecular Pharmacology Branch, DTP, NCI, 2024)

Tested on: 252836-082-R-J2-PDC tumor spheroids, viability
Experiment: Anticancer human tumor 252836-082-R-J2-PDC patient-derived head and neck squamous cell carcinoma cell line growth inhibition [PI3K]
Settings: spheroids with HUVEC and MSC; for viability, T/C: stronger effect = lower value
Outline: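 Tumor cells grown as multi-cell spheroids with HUVEC endothelial cells and MSC fibroblast-like stroma were treated with targeted agents combined with inavolisib, alpelisib, duvelisib or copanlisib. Doses fell in half-log steps from near clinical Cmax, else from 10 microM. Viability was measured.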

[1] = curve of first compound, second compound 0.0316 µM
[2] = curve of first compound, second compound 0.1 µM
[3] = curve of first compound, second compound 0.316 µM
[4] = curve of first compound, second compound 1 µM
[5] = curve of first compound, second compound 3.16 µM
[6] = curve of first compound, second compound 10 µM
[7] = second compound 0.0316 µM, first compound 0.000316 µM
[8] = second compound 0.0316 µM, first compound 0.001 µM
[9] = second compound 0.0316 µM, first compound 0.00316 µM
[10] = second compound 0.0316 µM, first compound 0.01 µM
[11] = second compound 0.0316 µM, first compound 0.0316 µM
[12] = second compound 0.0316 µM, first compound 0.1 µM
[13] = second compound 0.1 µM, first compound 0.000316 µM
[14] = second compound 0.1 µM, first compound 0.001 µM
[15] = second compound 0.1 µM, first compound 0.00316 µM
[16] = second compound 0.1 µM, first compound 0.01 µM
[17] = second compound 0.1 µM, first compound 0.0316 µM
[18] = second compound 0.1 µM, first compound 0.1 µM
[19] = second compound 0.316 µM, first compound 0.000316 µM
[20] = second compound 0.316 µM, first compound 0.001 µM
[21] = second compound 0.316 µM, first compound 0.00316 µM
[22] = second compound 0.316 µM, first compound 0.01 µM
[23] = second compound 0.316 µM, first compound 0.0316 µM
[24] = second compound 0.316 µM, first compound 0.1 µM
[25] = second compound 1 µM, first compound 0.000316 µM
[26] = second compound 1 µM, first compound 0.001 µM
[27] = second compound 1 µM, first compound 0.00316 µM
[28] = second compound 1 µM, first compound 0.01 µM
[29] = second compound 1 µM, first compound 0.0316 µM
[30] = second compound 1 µM, first compound 0.1 µM
[31] = second compound 3.16 µM, first compound 0.000316 µM
[32] = second compound 3.16 µM, first compound 0.001 µM
[33] = second compound 3.16 µM, first compound 0.00316 µM
[34] = second compound 3.16 µM, first compound 0.01 µM
[35] = second compound 3.16 µM, first compound 0.0316 µM
[36] = second compound 3.16 µM, first compound 0.1 µM
[37] = second compound 10 µM, first compound 0.000316 µM
[38] = second compound 10 µM, first compound 0.001 µM
[39] = second compound 10 µM, first compound 0.00316 µM
[40] = second compound 10 µM, first compound 0.01 µM
[41] = second compound 10 µM, first compound 0.0316 µM
[42] = second compound 10 µM, first compound 0.1 µM
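Note: spheroids exposed to agents for seven days before readout.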
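Throughout, for viability, T/C: percent of vehicle DMSO control viability so 100% = untreated growth.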

CC(C)n1nc(-c2ccc3oc(N)nc3c2)c2c(N)ncnc21 + CC(Nc1ncnc2nc[nH]c12)c1cc2cccc(Cl)c2c(=O)n1-c1ccccc1
IC50 [1]: 47.5 nM
IC50 [2]: 37.1 nM
IC50 [3]: 34.1 nM
IC50 [4]: 32.5 nM
IC50 [5]: 21.5 nM
IC50 [6]: 11.1 nM
viability, T/C [7]: 91.7%
viability, T/C [8]: 93.5%
viability, T/C [9]: 89.5%
viability, T/C [10]: 95.5%
viability, T/C [11]: 65.6%
viability, T/C [12]: 21.7%
viability, T/C [13]: 94.1%
viability, T/C [14]: 97.9%
viability, T/C [15]: 71.1%
viability, T/C [16]: 77.5%
viability, T/C [17]: 55.1%
viability, T/C [18]: 24.2%
viability, T/C [19]: 95.3%
viability, T/C [20]: 79%
viability, T/C [21]: 83.5%
viability, T/C [22]: 87.4%
viability, T/C [23]: 52%
viability, T/C [24]: 22.4%
viability, T/C [25]: 96%
viability, T/C [26]: 88.6%
viability, T/C [27]: 83.5%
viability, T/C [28]: 69.8%
viability, T/C [29]: 50.8%
viability, T/C [30]: 22.7%
viability, T/C [31]: 79.2%
viability, T/C [32]: 76.9%
viability, T/C [33]: 78.5%
viability, T/C [34]: 64.2%
viability, T/C [35]: 42.8%
viability, T/C [36]: 22%
viability, T/C [37]: 74.1%
viability, T/C [38]: 60%
viability, T/C [39]: 68.1%
viability, T/C [40]: 47%
viability, T/C [41]: 39.4%
viability, T/C [42]: 18%

CC(Nc1ncnc2nc[nH]c12)c1cc2cccc(Cl)c2c(=O)n1-c1ccccc1 (stereo not given)
viability, T/C (compound 0.0316 µM): 96.2% [middle of 8 runs]
viability, T/C (compound 0.1 µM): 95.5% [middle of 8 runs]
viability, T/C (compound 0.316 µM): 97.4% [middle of 8 runs]
viability, T/C (compound 3.16 µM): 78.1% [middle of 8 runs]
viability, T/C (compound 10 µM): 64.3% [middle of 8 runs]
IC50 (compound alone, run of 06/13/2023): > 10000 nM

Cn1ncnc1[C@H]1c2n[nH]c(=O)c3cc(F)cc(c23)N[C@@H]1c1ccc(F)cc1 + Cc1nc(NC(=O)N2CCCC2C(N)=O)sc1-c1ccnc(C(C)(C)C(F)(F)F)c1
IC50 [1]: > 100 nM
IC50 [2]: > 100 nM
IC50 [3]: > 100 nM
IC50 [4]: 17.2 nM
IC50 [5]: < 0.316 nM
IC50 [6]: < 0.316 nM
viability, T/C [7]: 88.5%
viability, T/C [8]: 94.1%
viability, T/C [9]: 96.9%
viability, T/C [10]: 76.2%
viability, T/C [11]: 75.2%
viability, T/C [12]: 58.5%
viability, T/C [13]: 80.2%
viability, T/C [14]: 71.3%
viability, T/C [15]: 83.4%
viability, T/C [16]: 65.6%
viability, T/C [17]: 78.5%
viability, T/C [18]: 58.4%
viability, T/C [19]: 62.3%
viability, T/C [20]: 70.8%
viability, T/C [21]: 66.6%
viability, T/C [22]: 57.6%
viability, T/C [23]: 55.6%
viability, T/C [24]: 50.6%
viability, T/C [25]: 58.5%
viability, T/C [26]: 59.2%
viability, T/C [27]: 53.9%
viability, T/C [28]: 61.7%
viability, T/C [29]: 40.6%
viability, T/C [30]: 32.4%
viability, T/C [31]: 42.7%
viability, T/C [32]: 48.8%
viability, T/C [33]: 39%
viability, T/C [34]: 44.7%
viability, T/C [35]: 40.4%
viability, T/C [36]: 23.4%
viability, T/C [37]: 31.8%
viability, T/C [38]: 38.5%
viability, T/C [39]: 33.6%
viability, T/C [40]: 26.5%
viability, T/C [41]: 21.9%
viability, T/C [42]: 21.6%
